Measured values taken from ChEMBL document CHEMBL1201862, “PubChem BioAssay data set” (2004).
Activity calls are given as the source filed them.

What was measured:
[1] = target: T1, Tyrosine-protein phosphatase non-receptor type 7 (Homo sapiens, UniProt P35236); format: functional
T1 sequence (P35236 whole entry): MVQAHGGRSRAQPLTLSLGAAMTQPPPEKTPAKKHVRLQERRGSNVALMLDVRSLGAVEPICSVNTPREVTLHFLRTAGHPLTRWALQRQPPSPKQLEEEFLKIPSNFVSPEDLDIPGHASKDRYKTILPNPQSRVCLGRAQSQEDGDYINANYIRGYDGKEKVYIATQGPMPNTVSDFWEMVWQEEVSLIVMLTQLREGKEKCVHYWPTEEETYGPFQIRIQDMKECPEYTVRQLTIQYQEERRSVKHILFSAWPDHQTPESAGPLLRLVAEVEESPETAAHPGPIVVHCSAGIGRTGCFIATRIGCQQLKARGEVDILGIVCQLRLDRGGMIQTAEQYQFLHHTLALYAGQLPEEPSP

[2] = target: Glyceraldehyde-3-phosphate dehydrogenase (Homo sapiens, UniProt P04406)
[3] = target: Heat shock cognate 71 kDa protein (Homo sapiens, UniProt P11142); assay: In Vitro Hsc70 Dose Response Fluorescence Polarization Assay. [Related pubchem assays: 1072 ]
[4] = target: Heat shock 70 kDa protein 1A (Homo sapiens, UniProt P0DMV8); assay: inhibition of Hsp70 binding activity – biochemical, fluorescence polarization, SAR follow-up (AID 1072)
[5] = target: T2, Dual specificity protein phosphatase 6 (Rattus norvegicus, UniProt Q64346)
T2 sequence (Q64346 whole entry): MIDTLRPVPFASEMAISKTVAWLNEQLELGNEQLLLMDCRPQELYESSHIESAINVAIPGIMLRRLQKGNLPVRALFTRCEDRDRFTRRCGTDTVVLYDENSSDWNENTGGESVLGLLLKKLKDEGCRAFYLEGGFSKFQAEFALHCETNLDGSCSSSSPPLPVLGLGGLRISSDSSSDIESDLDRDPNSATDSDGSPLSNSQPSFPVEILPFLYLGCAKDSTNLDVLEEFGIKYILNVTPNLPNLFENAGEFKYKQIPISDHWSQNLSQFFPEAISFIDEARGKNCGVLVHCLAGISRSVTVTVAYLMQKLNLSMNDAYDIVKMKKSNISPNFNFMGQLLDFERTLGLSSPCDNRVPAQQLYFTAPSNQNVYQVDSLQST

[6] = target: T2, Dual specificity protein phosphatase 6; format: functional
HEK293 [7] = assay: inhibition of NOD1-driven NF-kB reporter – cell-based, luminescence, uHTS, primary screen (AID 1578); format: functional; settings: Homo sapiens
HEK293 [8] = assay: cells; format: functional, cell-based; settings: Homo sapiens
HEK293 [9] = assay: cells; format: functional, cell-based; settings: Homo sapiens; remark: listed apart in the source
HEK293 [10] = assay: NOD2 signaling inhibitors in MDP-stimulated cells, cell-based, uHTS, luminescence (AID 2001); format: functional; settings: Homo sapiens
[11] = target: T3, Replicative DNA helicase DnaB (Mycobacterium tuberculosis, UniProt P9WMR3); assay: DnaB intein splicing inhibitors, dose response, biochemical, cell-free fluorescence (AID 449749); format: functional
T3 sequence (P9WMR3 whole entry): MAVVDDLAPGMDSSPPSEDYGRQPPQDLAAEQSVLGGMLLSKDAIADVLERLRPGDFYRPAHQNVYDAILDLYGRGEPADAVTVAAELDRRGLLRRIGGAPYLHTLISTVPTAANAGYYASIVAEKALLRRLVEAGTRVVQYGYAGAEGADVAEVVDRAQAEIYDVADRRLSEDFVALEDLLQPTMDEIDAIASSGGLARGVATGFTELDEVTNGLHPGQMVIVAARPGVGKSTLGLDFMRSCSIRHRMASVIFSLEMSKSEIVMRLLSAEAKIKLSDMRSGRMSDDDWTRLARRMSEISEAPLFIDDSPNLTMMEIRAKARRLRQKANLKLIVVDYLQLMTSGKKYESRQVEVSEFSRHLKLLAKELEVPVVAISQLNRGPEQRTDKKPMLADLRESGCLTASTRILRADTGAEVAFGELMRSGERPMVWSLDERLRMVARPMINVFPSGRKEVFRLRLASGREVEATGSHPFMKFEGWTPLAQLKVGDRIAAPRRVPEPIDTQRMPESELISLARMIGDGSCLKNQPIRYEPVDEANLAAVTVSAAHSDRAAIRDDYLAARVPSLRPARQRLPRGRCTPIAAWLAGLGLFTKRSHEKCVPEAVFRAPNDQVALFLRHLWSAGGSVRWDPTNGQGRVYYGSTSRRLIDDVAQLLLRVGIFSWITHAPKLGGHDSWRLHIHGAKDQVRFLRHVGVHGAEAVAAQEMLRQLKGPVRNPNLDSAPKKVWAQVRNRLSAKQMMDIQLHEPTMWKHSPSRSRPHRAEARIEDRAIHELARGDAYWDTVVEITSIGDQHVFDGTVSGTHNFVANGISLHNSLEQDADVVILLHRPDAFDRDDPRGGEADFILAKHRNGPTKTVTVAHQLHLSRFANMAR

Protein RecA = target: T4, Protein RecA (Mycobacterium tuberculosis, UniProt P9WHJ3); assay: Fluorescence Cell-Free Homogeneous Dose Retest to Identify Inhibitors of RecA-Intein Splicing Activity. [Related pubchem assays (depositor defined):AID2097, AID2223, AID489010, AID492950]; format: functional
T4 sequence (P9WHJ3 whole entry): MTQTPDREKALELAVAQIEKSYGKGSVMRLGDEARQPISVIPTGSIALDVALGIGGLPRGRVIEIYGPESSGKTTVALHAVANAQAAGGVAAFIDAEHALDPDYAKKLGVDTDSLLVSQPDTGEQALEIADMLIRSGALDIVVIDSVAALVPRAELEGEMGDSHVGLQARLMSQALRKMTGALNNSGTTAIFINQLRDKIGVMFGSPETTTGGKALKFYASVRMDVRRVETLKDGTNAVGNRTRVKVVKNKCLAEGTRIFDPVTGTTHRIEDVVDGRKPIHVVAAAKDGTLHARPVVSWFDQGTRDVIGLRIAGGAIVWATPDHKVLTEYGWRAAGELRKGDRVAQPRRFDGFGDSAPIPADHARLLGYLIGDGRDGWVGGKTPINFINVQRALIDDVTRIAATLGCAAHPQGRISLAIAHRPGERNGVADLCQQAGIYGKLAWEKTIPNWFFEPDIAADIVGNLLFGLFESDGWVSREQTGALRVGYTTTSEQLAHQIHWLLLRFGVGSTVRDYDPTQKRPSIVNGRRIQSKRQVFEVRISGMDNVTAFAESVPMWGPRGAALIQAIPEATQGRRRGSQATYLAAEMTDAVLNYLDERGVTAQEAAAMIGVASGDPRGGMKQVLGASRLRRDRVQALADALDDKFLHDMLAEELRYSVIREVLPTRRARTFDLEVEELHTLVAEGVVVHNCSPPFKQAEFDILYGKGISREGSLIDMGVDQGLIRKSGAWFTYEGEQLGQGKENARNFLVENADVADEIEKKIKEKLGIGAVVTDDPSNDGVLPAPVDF

HEK293 [12] = assay: cells; settings: Homo sapiens
HEK293 [13] = assay: cells; settings: Homo sapiens; remark: listed apart in the source
[14] = blockers of HIV-1 envelope-mediated cell-cell fusion – cherry-pick, dose response (AID 652057); format: functional, cell-based
[15] = blockers of HIV-1 ZM109 envelope-driven cell-cell fusion – HeLa effector, CEM target cells, luciferase, cherry-pick, dose response (AID 652058); format: functional, cell-based;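 also: luciferase signal from HIV-1 Env mediated cell-cell fusion of effector and target cells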
[16] = off-target signal loss in HeLa-CEM21 co-culture – HeLa F-luc CTL cells, cherry-picked, counter-screen for HIV-1 Env fusion inhibitor project, dose response (AID 652040); format: functional, cell-based;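 also: potency for signal decrease marking cytotoxic or nonspecific inhibition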
[17] = HIV-1 AD8 envelope cell-cell fusion blockers – cherry-pick, dose response (AID 652062); format: functional, cell-based;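 also: luciferase signal from cell-cell fusion driven by HIV-1 clade B AD8 Env; potency is for inhibitors of fusion seen as a drop in luminescence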
[18] = THP-1 cell cytotoxicity, dose response, cytotoxicity control for non-replicating M. tuberculosis project (AID 489025); format: functional
[19] = Vero E6 cell cytotoxicity, dose response, cytotoxicity control for non-replicating M. tuberculosis project, secondary assay (AID 492998); format: functional, VeroE6; settings: Vero C1008
[20] = target: T5, Microphthalmia-associated transcription factor (Homo sapiens, UniProt O75030); assay: reducers of TRPM1 reporter luminescence, concentration series – cell-based, SK-MEL-5, cherry-picked, set 3, MITF inhibitor project, dose response (AID 493073); format: functional;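 also: SK-MEL-5 melanoma cells with luciferase driven by the MITF target TRPM1 promoter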
T5 sequence (O75030 whole entry): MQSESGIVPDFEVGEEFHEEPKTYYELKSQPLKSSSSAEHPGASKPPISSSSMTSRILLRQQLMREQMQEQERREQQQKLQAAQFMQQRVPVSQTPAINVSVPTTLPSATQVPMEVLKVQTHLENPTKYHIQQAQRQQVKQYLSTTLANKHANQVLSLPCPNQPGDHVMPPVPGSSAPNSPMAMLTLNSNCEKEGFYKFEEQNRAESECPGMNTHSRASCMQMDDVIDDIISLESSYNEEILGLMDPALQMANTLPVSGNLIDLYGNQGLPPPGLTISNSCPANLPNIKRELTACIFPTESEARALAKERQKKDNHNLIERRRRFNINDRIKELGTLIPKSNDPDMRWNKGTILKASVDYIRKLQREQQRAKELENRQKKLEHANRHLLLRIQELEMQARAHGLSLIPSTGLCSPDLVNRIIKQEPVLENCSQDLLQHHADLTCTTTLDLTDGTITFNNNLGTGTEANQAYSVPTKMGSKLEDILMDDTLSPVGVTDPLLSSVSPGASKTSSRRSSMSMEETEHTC

cells = format: functional
HEK293 [21] = assay: HEK293T cell viability loss, resazurin readout – resazurin fluorescence, cytotoxicity control for NF-kB activator project, SAR follow-up (AID 493251); format: functional, cell-based; settings: Homo sapiens
Jurkat = assay: SAR Analysis of small molecule inhibitors of T-cell specific antigen receptor-induced NF-kB activation in a Jurkat cell line using a luminescence assay - Set 2. [Related pubchem assays (depositor defined):AID435003, AID435012, AID465]; format: functional, cell-based
HEK293 [22] = assay: SAR Analysis of small molecule inhibitors of T-cell specific antigen receptor-induced NF-kB activation in a HEK-293T cell line using a luminescence assay - Set 2. [Related pubchem assays (depositor defined):AID435003, AID435012, AID489026]; format: functional, cell-based
[23] = target: Dual specificity tyrosine-phosphorylation-regulated kinase 1A (Rattus norvegicus, UniProt Q63470); format: biochemical, Homo sapiens
[24] = decrease of insulin promoter-GFP reporter – imaging, high-content screening, mouse beta cells (AID 1628); format: functional; settings: MIN6
BJ [25] = assay: BJ-TERT fibroblast viability loss – cell-based, RAS-independent, luminescence, dose response (AID 1933); format: functional; settings: Homo sapiens
[26] = MIN6 cell viability loss – mouse insulinoma, cytotoxicity control, dose response (AID 2122); format: functional;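 also: confirmatory high-throughput counterscreen run to flag cytotoxic compounds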
BJ [27] = assay: cells; format: functional, cell-based; settings: Homo sapiens
[28] = DRD fibroblast viability loss – cell-based, non-viral oncogenic, luminescence, dose response (AID 1934); format: functional; settings: Homo sapiens
[29] = Luminescence Cell-Based Dose Retest to Confirm Inhibitors of Cancer Stem Cells. [Related pubchem assays (depositor defined):AID2717, AID2721]; format: functional; settings: Homo sapiens
INS1 = assay: INS-1E survival protection against cytokine death – cell-based, luminescence, retest, dose response (AID 449756); format: functional; settings: Rattus norvegicus;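 also: cell death triggered by IL-1 beta plus TNF-alpha plus IFN-gamma mixture; protective hits raise ATP signal compared with cytokine alone wells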

Chain of Heat shock 70 kDa protein 1A (P0DMV8 whole entry): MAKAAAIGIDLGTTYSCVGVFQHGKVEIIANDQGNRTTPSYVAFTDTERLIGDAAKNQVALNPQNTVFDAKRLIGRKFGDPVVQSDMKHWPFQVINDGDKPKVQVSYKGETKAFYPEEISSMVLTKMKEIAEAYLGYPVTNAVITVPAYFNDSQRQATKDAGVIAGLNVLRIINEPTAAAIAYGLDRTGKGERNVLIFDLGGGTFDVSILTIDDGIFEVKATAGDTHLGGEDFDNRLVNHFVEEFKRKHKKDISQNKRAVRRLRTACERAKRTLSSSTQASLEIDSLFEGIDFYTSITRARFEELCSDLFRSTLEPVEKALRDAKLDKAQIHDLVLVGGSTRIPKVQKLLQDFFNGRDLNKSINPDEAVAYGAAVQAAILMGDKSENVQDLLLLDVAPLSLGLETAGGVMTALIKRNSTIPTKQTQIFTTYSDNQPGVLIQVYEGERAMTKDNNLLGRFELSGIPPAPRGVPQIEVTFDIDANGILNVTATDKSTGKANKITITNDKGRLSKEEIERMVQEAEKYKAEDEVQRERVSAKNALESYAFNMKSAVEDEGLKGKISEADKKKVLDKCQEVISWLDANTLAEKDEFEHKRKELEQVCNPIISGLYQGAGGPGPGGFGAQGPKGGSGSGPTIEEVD
Chain of Heat shock cognate 71 kDa protein (P11142 whole entry): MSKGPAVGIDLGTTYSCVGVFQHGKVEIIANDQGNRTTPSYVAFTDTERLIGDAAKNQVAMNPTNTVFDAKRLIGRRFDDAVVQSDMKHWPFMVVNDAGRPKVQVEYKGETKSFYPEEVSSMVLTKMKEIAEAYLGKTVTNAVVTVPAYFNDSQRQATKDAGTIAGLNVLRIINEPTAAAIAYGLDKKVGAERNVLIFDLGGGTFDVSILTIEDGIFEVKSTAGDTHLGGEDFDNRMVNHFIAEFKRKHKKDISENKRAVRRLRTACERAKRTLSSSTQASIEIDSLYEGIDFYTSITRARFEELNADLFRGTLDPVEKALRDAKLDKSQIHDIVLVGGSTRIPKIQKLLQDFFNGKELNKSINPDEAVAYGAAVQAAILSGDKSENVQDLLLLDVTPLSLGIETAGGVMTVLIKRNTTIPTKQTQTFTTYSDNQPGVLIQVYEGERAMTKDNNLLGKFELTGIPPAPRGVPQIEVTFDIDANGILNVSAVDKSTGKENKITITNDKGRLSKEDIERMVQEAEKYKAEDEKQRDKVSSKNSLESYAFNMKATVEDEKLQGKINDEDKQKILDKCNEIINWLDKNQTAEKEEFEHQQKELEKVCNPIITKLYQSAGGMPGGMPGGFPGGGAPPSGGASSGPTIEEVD
Chain of Glyceraldehyde-3-phosphate dehydrogenase (P04406 whole entry): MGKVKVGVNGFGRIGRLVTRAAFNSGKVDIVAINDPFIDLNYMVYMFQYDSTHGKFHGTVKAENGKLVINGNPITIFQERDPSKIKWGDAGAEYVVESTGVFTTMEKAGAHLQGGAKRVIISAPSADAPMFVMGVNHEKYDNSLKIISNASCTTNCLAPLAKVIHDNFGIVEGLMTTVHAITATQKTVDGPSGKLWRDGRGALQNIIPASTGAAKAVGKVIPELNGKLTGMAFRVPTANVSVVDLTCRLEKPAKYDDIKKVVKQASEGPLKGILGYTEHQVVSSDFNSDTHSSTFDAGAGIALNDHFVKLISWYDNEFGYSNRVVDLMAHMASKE

## O=C(O)C1Nc2ccccc2C2C=CCC12 (stereo not drawn)
[1]
  IC50: 6.05 µM (active)
[2]
  IC50: > 100 µM (not active)
[3]
  IC50: > 100 µM (not active)
[4]
  IC50: 7.14 µM (active)
[5]
  IC50: 50.8 µM (active)
[6]
  IC50: 25.2 µM (active)

## O=C(CCl)Nc1cc(S(=O)(=O)N2CCCCCC2)ccc1Cl
HEK293 [7]
  EC50: 9.38 µM (active)
HEK293 [8]
  IC50: 7.86 µM (active)
HEK293 [9]
  IC50: > 20 µM (inactive)
HEK293 [10]
  IC50: > 20 µM (inactive)
[11]
  AC50: 9.12 µM (active)
Protein RecA
  EC50: 2.03 µM (active)
HEK293 [12]
  EC50: > 59.6 µM (inactive)
HEK293 [13]
  EC50: > 59.6 µM (inactive)

## CCN1C(=O)[C@H]2[C@@H](c3ccc(C)cc3)N3C(=O)N(c4cccc(Cl)c4)C(=O)[C@@]3(CC)[C@H]2C1=O
[14]
  AC50: 2.33 µM (active)
[15]
  AC50: 2.06 µM (active)
[16]
  AC50: 3.98 µM (active)
[17]
  AC50: 4.82 µM (active)
HEK293 [12]
  EC50: > 59.6 µM (inactive)
HEK293 [13]
  EC50: > 59.6 µM (inactive)

## Cc1cccc(NC(=O)c2ccc([N+](=O)[O-])o2)c1C
[18]
  CC50: 20.5 µM (active)
[19]
  CC50: 8.76 µM (active)
[20]
  AC50: 14.8 µM (active)
cells
  IC50: 10.8 µM (active)
HEK293 [21]
  IC50: > 80 µM (inactive)
Jurkat; Homo sapiens, Jurkat
  IC50: 17.8 µM (active)
Jurkat; jurkat
  IC50: 14.6 µM (active)
HEK293 [22]; Homo sapiens, HEK293
  IC50: 69.2 µM (inactive)
HEK293 [22]; hek293
  IC50: 63.1 µM (inactive)

## c1cncc(-c2nc3ccccc3[nH]2)c1
[23]
  AC50: > 120 µM (inactive)

## COc1ccc(C)cc1NS(=O)(=O)c1ccc(NC(=O)CN(c2cc([N+](=O)[O-])ccc2C)S(C)(=O)=O)cc1
[24]
  IC50: 1.1 µM (active)
BJ [25]
  EC50: 21 µM (active)
[26]
  IC50: 1.2 µM (active)
BJ [27]
  EC50: 2.75 µM (active)
[28]
  EC50: 19.7 µM (active)
[29]
  AC50: 1.8 µM (active)
INS1
  AC50: 0.846 µM (active)

## Cc1cc([N+](=O)[O-])cc2c1NC(C(=O)O)C1CC=CC21 (stereo not drawn)
[1]
  IC50: > 100 µM (not active)
[2]
  IC50: > 100 µM (not active)
[3]
  IC50: 117 µM (active)
[4]
  IC50: 24.3 µM (active)
[5]
  IC50: > 100 µM (inactive)
[6]
  IC50: > 100 µM (inactive)
